The test system of experiment [1] is ABCF1. The experiment is described as follows: Escitalopram induction of ABCF1 in RAW macrophages, real time RT-PCR. Format: cell-based. The procedure: (§1) FIG. 1—illustrates that Escitalopram induces ABCF1 in a Macrophage cell line: RAW macrophages were plated at 1×10^5 cells/well and cultured for 2 days. The cells were incubated with 0.3 mM Escitalopram for 1 hour, and then harvested for total RNA, which was extracted for real time RT-PCR specific for ABCF1 and IL-4. CT values were normalized with CT value for the housekeeping gene from the DMSO control. The difference in the expression after drug treatment is consistent with polarization towards an M2-like phenotype (data were consistent in 3 separate experiments).
(§2) Additionally, noradrenergic or serotonin-norepinephrine reuptake inhibitors used to treat major depressive disorder have anti-inflammatory properties in vitro^55. […] Mechanistically, antidepressants likely mediate this through a reduction in pro-inflammatory cytokines IL-1b, TNFα, and IL-6 with a reciprocal increase in anti-inflammatory cytokines including […]. Studies have also shown that single nucleotide polymorphisms in IL-6 and IL-11, and mRNA levels of TNFα, are predictive of clinical response to the SSRI, escitalopram^63,64. Also, escitalopram modulates mRNA levels of cytokines in mouse brain^65 and decreases cytokine mRNA levels in the circulating immune cells of depression patients^60. […]

Experiment [2] deals with ABCF1. The conditions noted are these: peripheral blood mononuclear cells of patients responding to escitalopram treatment; cited from earlier work.
The test system of experiment [3] is IL-4. Nature of the experiment: Escitalopram induction of IL-4 in RAW macrophages, real time RT-PCR. The format is cell-based. The conditions noted are these: RAW macrophage cell line, 0.3 mM Escitalopram, 1 hour, normalized to housekeeping gene, vs DMSO control (FIG. 1). The protocol: as §1, §2
The test system of experiment [4] is ABCF1. Nature of the experiment: Effect of psylocibin, psylocin and analogs on ABCF1 transcription in RAW264.7, qPCR. The following applies: RAW264.7, 10 nM, 100 nM, 500 nM, normalized against GAPDH (FIG. 2). The format is cell-based. The procedure:
FIG. 2—illustrates the effect of psylocibin, psylocin and their analogs on ABCF1 transcription in a macrophage cell line. Briefly, the Macrophage cell line RAW264.7 (ATCC) were grown to 80% confluency in growth media (DMEM+ 10% FBS+ glutamine). Dilutions of psylocibin, psylocin and their analogs were made at desired final concentrations for a Dose response experiment. The concentrations' used for this experiment are: 10 nM, 100 nM, 500 nM for Psilocin, Psylocibin, 4-Acetoxy-N, N-dimthyltryptamine, O-Acetyl Psilocin Fumerate, and 4-acetoxyindole. The cells were incubated for 2 hours and then harvested for total RNA, which was extracted for real time RT-PCR specific for ABCF1. Untreated cells were used as negative control and Escitalopram at 0.3 mM was used as a positive control to activate ABCF1 expression for all the experiments. ES=escitalopram; PSYB=Psylocibin; PSIC=Psilocin; DMT=4-Acetoxy-N, N-dimthyltryptamine; APF=O-Acetyl Psilocin Fumerate, and AOI=4-acetoxyindole.
Preparation of Cells: • 1. Macrophage cell line RAW264.7 (ATCC) were grown to 80% confluency in growth media (DMEM+10% FBS+glutamine). • 2. Dilutions of the drugs were made at desired final concentrations for a Dose response experiment. […]
• 1. […] Normalized against the expression level of GAPDH, the fold change expression level of ABCF1 was calculated and tabulated for all treatment conditions.

The source of these data is patent publication US20230405026A1, “A Method of Treating Depression by Immune Modulation” (Mynd Life Sciences Inc., priority 2020, published 2023).

With `CN(C)CCC[C@@]1(c2ccc(F)cc2)OCc2cc(C#N)ccc21` [Escitalopram], the “induction of ABCF1 expression” value in experiment [1] (RAW macrophage cell line, 0.3 mM Escitalopram, 1 hour, normalized to housekeeping gene, vs DMSO control (FIG. 1)) is reported as “approximately 20 fold”. The “ABCF1 induction in a macrophage cell line (in words)” value in experiment [1] (RAW macrophages, 0.3 mM, 1 hour (FIG. 1 legend)) was “induces ABCF1”. The “transcription of ABCF1 in PBMCs” value in experiment [2] is “increased the transcription”. Further, the “induction of IL-4 expression” value in experiment [3] was “approximately 5 fold”.

`CN(C)CCc1c[nH]c2cccc(O)c12` [psylocin, 4-hydroxy-N,N-dimethyltryptamine]: the “ABCF1 transcription (in words)” value in experiment [4] is “upregulate ABCF1 transcription”.
